From patent US20120255051A1, “HERBICIDE TOLERANT PLANTS” (priority 2009, published 2012)

Tested on: Brassica plants comprising mutant AHAS alleles
Experiment: Field trial, pre-planting treatment (0, 10, 20, 30 g a.i./ha), two locations in Canada: ERG, EST1, EST2, PPTOX, VIG1, VIG2, VIG3 scores
Assay type: in vivo, Brassica napus
Source text: Tests were set up and conducted to asses the growth and performance of plants comprising AHAS full knock-out alleles, and to further analyze the correlation between the presence of full knockout and missense AHAS genes in Brassica plants and plant growth and herbicide tolerance of the Brassica plants in the field. To this end, the Brassica plants identified in Example 1 and 2 were backcrossed two times with an elite parent line, and subsequently selfed twice to obtain homozygous plants (BC2S2). Plants were grown as row plots in a split plot design with three replicates (main plots=herbicide treatments, subplots=genotypes) at two locations in Canada. Treatment pre-planting was carried out on the soil about two days before sowing with a dose of 0 (treatment A), 10 (treatment B), 20 (treatment C) or 30 (treatment D) g a.i./ha of thiencarbazone methyl. Herbicide tolerance was measured by scoring for different parameters. The parameter emergence (ERG) was scored at the cotyledon stage on a scale 1-9, where 1 means late emergence and 9 means early emergence. Establishment was scored 14 days after sowing (EST1) and 21 days after sowing (EST2). Scores were from 1 to 9, where 1 is the worst establishment (least plants that emerged), and 9 is the best establishment (most plants emerged). Phytotoxicity (PPTOX) was determined after establishment. Plants were evaluated on a scale of 1 to 9, where 1=completely yellowing, 5=50% of plant is yellow and 9=no yellowing. The vigor scores (see above) were determined at 1-2 leaf stage (VIG1), 7 days after VIG1 (VIG2) and 14 days after VIG1 (VIG3). The average values (Av) and standard deviations (SD) of the scores for the different parameters are represented in Table 7a-g.
Further, the contribution of the knock-out allele to herbicide tolerance conferred by the missense allele was calculated. First, the scores were corrected for a possible effect of the growth per se, independent of herbicide treatment. To this end, the scores for treatments B, C and D were divided by the scores for treatment A for the same genotype and for the same parameter (corrected herbicide tolerance scores). Next, the effect of the knock-out allele to these corrected herbicide tolerance scores obtained by the missense allele was calculated. Therefore, the corrected herbicide tolerance scores for the missense—knock-out allele combination was divided by the corrected herbicide tolerance scores for the missense allele—wild-type combination. In case the knock-out allele has no effect on herbicide tolerance conferred by the missense allele, this ratio should be 1. In case the knock-out allele positively contributes to the herbicide tolerance conferred by the missense allele, this ratio should be higher than 1. The results for the contribution of the knock-out allele to herbicide tolerance conferred by the missense allele as calculated above are shown in table 8.

[1] = AHAS1 HETO112, AHAS3 WT, treatment C 20 g a.i./ha pre-planting, Location A
[2] = AHAS1 HETO112, AHAS3 WT, treatment C 20 g a.i./ha pre-planting, Location B
[3] = AHAS1 HETO112, AHAS3 WT, treatment D 30 g a.i./ha pre-planting, Location A
[4] = AHAS1 HETO112, AHAS3 WT, treatment D 30 g a.i./ha pre-planting, Location B
[5] = AHAS1 HETO112/AHAS3 HETO111, 10 g a.i./ha pre-planting (B), Location A
[6] = AHAS1 HETO112/AHAS3 HETO111, 10 g a.i./ha pre-planting (B), Location B
[7] = AHAS1 HETO112/AHAS3 HETO111, 20 g a.i./ha pre-planting (C), Location A
[8] = AHAS1 HETO112/AHAS3 HETO111, 20 g a.i./ha pre-planting (C), Location B
[9] = AHAS1 HETO112/AHAS3 HETO111, 30 g a.i./ha pre-planting (D), Location A
[10] = AHAS1 HETO112/AHAS3 HETO111, 30 g a.i./ha pre-planting (D), Location B
[11] = AHAS1 HETO112/AHAS3 WT, 10 g a.i./ha pre-planting (B), Location A
[12] = AHAS1 HETO112/AHAS3 WT, 10 g a.i./ha pre-planting (B), Location B
[13] = AHAS1 HETO112/AHAS3 WT, 20 g a.i./ha pre-planting (C), Location A
[14] = AHAS1 HETO112/AHAS3 WT, 20 g a.i./ha pre-planting (C), Location B
[15] = AHAS1 HETO112/AHAS3 WT, 30 g a.i./ha pre-planting (D), Location A
[16] = AHAS1 HETO112/AHAS3 WT, 30 g a.i./ha pre-planting (D), Location B
[17] = AHAS1 WT, AHAS3 HETO104, treatment B 10 g a.i./ha pre-planting, Location A
[18] = AHAS1 WT, AHAS3 HETO104, treatment B 10 g a.i./ha pre-planting, Location B
[19] = AHAS1 WT, AHAS3 HETO104, treatment C 20 g a.i./ha pre-planting, Location A
[20] = AHAS1 WT, AHAS3 HETO104, treatment C 20 g a.i./ha pre-planting, Location B
[21] = AHAS1 WT, AHAS3 HETO104, treatment D 30 g a.i./ha pre-planting, Location A
[22] = AHAS1 WT, AHAS3 HETO104, treatment D 30 g a.i./ha pre-planting, Location B

COC(=O)c1csc(C)c1S(=O)(=O)NC(=O)n1nc(OC)n(C)c1=O [thiencarbazone-methyl, methyl 4-[(4,5-dihydro-3-methoxy-4-methyl-5-oxo-1H-1,2,4-triazol-1-yl)carbonylsulfamoyl]-5-methylthiophene-3-carboxylate]
establishment (EST1) score Av, 14 days after sowing (AHAS1 HETO112, AHAS3 WT, treatment B 10 g a.i./ha pre-planting, Location B): 2.33
emergence (ERG) score Av [1]: 1.00
establishment (EST1) score Av, 14 days after sowing [1]: 1.00
emergence (ERG) score Av [2]: 1.00
establishment (EST1) score Av, 14 days after sowing [2]: 1.33
emergence (ERG) score Av [3]: 1.00
establishment (EST1) score Av, 14 days after sowing [3]: 1.00
emergence (ERG) score Av [4]: 1.00
establishment (EST1) score Av, 14 days after sowing [4]: 1.00
establishment (EST2) score, Av [5]: 5.67
vigor1 (VIG1) score, Av [5]: 6.33
vigor2 (VIG2) score, Av [5]: 7.33
establishment (EST2) score, Av [6]: 5.67
vigor2 (VIG2) score, Av [6]: 6.67
establishment (EST2) score, Av [7]: 5.33
vigor2 (VIG2) score, Av [7]: 6.33
establishment (EST2) score, Av [8]: 5.00
vigor2 (VIG2) score, Av [8]: 5.33
establishment (EST2) score, Av [9]: 5.67
vigor2 (VIG2) score, Av [9]: 6.67
establishment (EST2) score, Av [10]: 3.67
vigor1 (VIG1) score, Av [10]: 4.00
vigor2 (VIG2) score, Av [10]: 5.33
establishment (EST2) score, Av [11]: 1.67
phytotoxicity (PPTOX) score, Av [11]: 1.00
vigor1 (VIG1) score, Av [11]: 1.00
vigor2 (VIG2) score, Av [11]: 1.00
establishment (EST2) score, Av [12]: 2.67
phytotoxicity (PPTOX) score, Av [12]: 1.00
vigor1 (VIG1) score, Av [12]: 1.33
vigor2 (VIG2) score, Av [12]: 1.00
establishment (EST2) score, Av [13]: 1.00
phytotoxicity (PPTOX) score, Av [13]: 1.00
vigor1 (VIG1) score, Av [13]: 1.00
vigor2 (VIG2) score, Av [13]: 1.00
establishment (EST2) score, Av [14]: 1.67
phytotoxicity (PPTOX) score, Av [14]: 1.00
vigor1 (VIG1) score, Av [14]: 1.00
vigor2 (VIG2) score, Av [14]: 1.00
establishment (EST2) score, Av [15]: 1.00
phytotoxicity (PPTOX) score, Av [15]: 1.00
vigor1 (VIG1) score, Av [15]: 1.00
vigor2 (VIG2) score, Av [15]: 1.00
establishment (EST2) score, Av [16]: 1.00
phytotoxicity (PPTOX) score, Av [16]: 1.00
vigor1 (VIG1) score, Av [16]: 1.00
vigor2 (VIG2) score, Av [16]: 1.00
emergence (ERG) score Av [17]: 2.00
establishment (EST1) score Av, 14 days after sowing [17]: 2.33
emergence (ERG) score Av [18]: 2.00
establishment (EST1) score Av, 14 days after sowing [18]: 3.33
emergence (ERG) score Av [19]: 1.00
establishment (EST1) score Av, 14 days after sowing [19]: 1.00
emergence (ERG) score Av [20]: 1.33
establishment (EST1) score Av, 14 days after sowing [20]: 2.33
emergence (ERG) score Av [21]: 1.00
establishment (EST1) score Av, 14 days after sowing [21]: 1.00
emergence (ERG) score Av [22]: 1.00
establishment (EST1) score Av, 14 days after sowing [22]: 1.00
emergence (ERG) score Av (AHAS1 WT, AHAS3 HETO111 (HETO108+HETO111 series), treatment B 10 g a.i./ha pre-planting, Location A): 5.33
